Data published in paper PMC5796017, “Enantiomeric Effect of D-Amino Acid Substitution on the Mechanism of Action of α-Helical Membrane-Active Peptides” (International Journal of Molecular Sciences, 2017).
Values after ≈ are worked out from the molar mass of the structure shown.

Key:
E. coli ATCC25922 = assay: AFM imaging; format: cell-based, Escherichia coli; settings: treatment 30 min, imaged in air, contact mode
Protocol: The mechanism of the interaction of the peptides with the different kinds of membranes was further analyzed by AFM. E. coli and HeLa cells were imaged to observe the morphologic change of cell membranes with, and without, treatment with V13K. […] Similarly, the surface of untreated cells fixed with, or without, 4% paraformaldehyde were intact and the membrane surface appeared quite smooth (Figure 4E–H).
The AFM imaging of E. coli ATCC25922 and HeLa cells before, and after, incubation with V13K were performed using an AFM 5500 (Agilent Technologies, Chandler, AZ, USA). The AFM imaging of E. coli was used on the contact mode and the cantilever was used as the B-tip (DNP, B-tip, Bruker AFM probes, California, CA, USA). The AFM imaging of HeLa was used on the AAC mode and the cantilever was used as the D-tip (DNP, D-tip, Bruker AFM probes, Camarillo, California, CA, USA). A single bacterial colony was picked and cultured in Mueller–Hinton (MH) medium for 18–20 h. […] The E. coli and peptide-treated bacteria samples (after treatment for 30 min) were applied onto mica and imaged in air using the contact mode and recorded with 512 × 512 pixels. The images of HeLa cells and peptide-treated HeLa cells (after treatment for 5 min) were obtained in Dulbecco’s Modified Eagle’s medium (DMEM) using the Acoustic AC (AAC) mode and recorded with 512 × 512 pixels. […]

S. epidermidis ATCC12228 = assay: Antimicrobial activity, microtiter dilution MIC; format: cell-based, Staphylococcus epidermidis; settings: G+; MH medium, 5 × 10^5 CFU/mL, 37 °C, 24 h, triplicate
Outline: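 Broth microdilution in Mueller–Hinton medium, inoculum 5 × 10^5 CFU/mL, serially diluted peptide, 24 h at 37 °C. MIC taken as lowest peptide concentration preventing growth; triplicate runs.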

[1] = Circular dichroism (CD) secondary structure; format: physicochemical
Outline: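 Peptide secondary structure was measured by circular dichroism on a Jasco J-810 CD spectrometer at 25 °C, in benign KP buffer to mimic a hydrophilic environment and in 50% 2,2,2-trifluoroethanol (benign buffer: TFE = 1:1, vol/vol) to mimic a membrane-like hydrophobic environment. Mean residue molar ellipticity at 222 nm, [θ]222 (degree·cm^2·dmol^−1), calculated as [θ] = θ/10lCMn, gave relative helical content.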

[2] = tested on: human red blood (hRBC) cells; assay: Hemolytic activity assay; format: cell-based; settings: 2% human RBC in PBS, 37 °C, 2 h, absorbance 578 nm, triplicate
Outline: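 Healthy human RBCs (2% suspension in PBS) were incubated with serially diluted peptides for 2 h at 37 °C, and released hemoglobin in supernatant was read at 578 nm. Percent hemolysis was taken relative to distilled water (100%) after subtracting PBS (0%); run in triplicate.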

## CC[C@H](C)[C@H](NC(=O)[C@H](C)NC(=O)[C@H](CCCCN)NC(=O)[C@H](CC(C)C)NC(=O)[C@H](C)NC(=O)[C@@H](NC(=O)[C@H](Cc1cnc[nH]1)NC(=O)[C@H](CC(C)C)NC(=O)[C@@H](NC(=O)[C@@H](NC(=O)[C@H](CCCCN)NC(=O)[C@H](CCCCN)NC(=O)[C@H](C)NC(=O)[C@H](CO)NC(=O)[C@H](CCCCN)NC(=O)[C@H](Cc1ccccc1)NC(=O)[C@@H](NC(=O)[C@H](CCCCN)NC(=O)[C@H](CC(C)C)NC(=O)[C@H](Cc1ccccc1)NC(=O)[C@H](CO)NC(=O)[C@H](CCCCN)NC(=O)[C@H](Cc1c[nH]c2ccccc12)NC(=O)[C@H](CCCCN)NC(C)=O)[C@@H](C)O)[C@@H](C)O)C(C)C)[C@@H](C)O)C(=O)N[C@@H](CO)C(=O)N[C@@H](CO)C(N)=O [Peptide V13K]
E. coli ATCC25922
  Morphology of bacterial membrane by AFM: obvious damage to the morphology of bacterial membrane
S. epidermidis ATCC12228
  MIC: 4 µM (≈ 12 µg/mL)
[1]; CD, KP buffer (100 mM KCl, 50 mM KH2PO4/K2HPO4, pH 7.4), 75 μM peptide, 25 °C
  [θ]222, benign: −5617.46 degree·cm^2·dmol^−1
[1]; CD, KP buffer with 50% TFE, 75 μM peptide, 25 °C
  [θ]222, 50% TFE: −50,520.3 degree·cm^2·dmol^−1
[1]; KP buffer with 50% TFE, relative to molar ellipticity of V13K in 50% TFE
  α-Helix (%), 50% TFE (relative helicity): 100%
[1]; KP buffer, relative to molar ellipticity of V13K in 50% TFE
  α-Helix (%), benign: 11.1%
[2]
  MHC (minimal hemolytic concentration): 250 µM
